Laboratory results as given in patent US20250250265A1, “BENZOTHIAZOLE-PHENYLSULFONYL-PIPERIDINE ANALOGS AS ACTIVATORS OF NACYLPHOSPHATIDYLETHANOLAMINE HYDROLYZING PHOSPHOLIPASE D” (priority 2022, published 2025).
Entries after “also recorded” stand apart in the source; their conditions may differ.

Assays:
[1] = tested on: RAW264.7 mouse macrophages; assay: Cytotoxicity (MTT) in RAW264.7 macrophages; type: cell-based; conditions: for % viability RAW 264.7 (33 μM): Table 3; for cytotoxicity in RAW264.7 cells: up to / at 30 μM; for 33 μM Mϕ % Viability: Table 2, 33 μM compound
Procedure: Cytotoxicity was measured using MTT as previously described except that the studies used 96-well plates with 100 μL of 0.3 mg/mL MTT solution was added after 24 h of treatment and then replaced after 3 h with 0.1 M HCl in isopropanol. See Aggarwal et al., J. Biol. Chem. 295(21): 7289-7300 (2020). Viability was expressed as percent absorbance at 560 nm relative to vehicle controls.

[2] = biological target: T1, Fatty Acid Amide Hydrolase (FAAH) (Homo sapiens, UniProt O00519); assay: FAAH activity assay (Cayman Chemicals); type: biochemical; conditions: for Remaining FAAH Activity (33 μM): Table 3; for inhibition of FAAH activity: graded concentrations up to 33 μM; for inhibition at 33 µM: 33 μM compound, compared to vehicle (0%)
T1 construct: purchased Cayman Chemicals
T1 sequence (O00519 1-579): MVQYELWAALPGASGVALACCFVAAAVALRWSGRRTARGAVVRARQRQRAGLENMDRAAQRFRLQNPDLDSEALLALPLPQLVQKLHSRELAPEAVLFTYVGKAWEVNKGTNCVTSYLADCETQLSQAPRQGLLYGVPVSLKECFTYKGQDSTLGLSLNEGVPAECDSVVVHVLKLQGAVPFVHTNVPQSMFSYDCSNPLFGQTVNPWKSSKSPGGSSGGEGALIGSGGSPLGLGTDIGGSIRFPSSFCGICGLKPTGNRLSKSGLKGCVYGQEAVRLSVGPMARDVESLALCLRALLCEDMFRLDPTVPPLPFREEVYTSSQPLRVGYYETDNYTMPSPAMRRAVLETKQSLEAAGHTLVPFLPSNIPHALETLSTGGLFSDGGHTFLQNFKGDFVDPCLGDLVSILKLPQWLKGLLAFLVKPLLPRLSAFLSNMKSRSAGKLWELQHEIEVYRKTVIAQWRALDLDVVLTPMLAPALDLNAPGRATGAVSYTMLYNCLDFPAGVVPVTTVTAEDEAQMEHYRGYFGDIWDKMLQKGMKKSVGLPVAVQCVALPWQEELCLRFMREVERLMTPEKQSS
Procedure: (§1) Concentration response curves were plotted for VU534 for the enzymes fatty acid amide hydrolase (FAAH) and soluble epoxide hydrolase (sEH).
(§2) The fluorescence interference assay was performed using the same method as the HTS assay, but with BODIPY-FL C5 (Thermo Fisher Scientific) used in place of PED-A1. sEH and FAAH activity assays were performed according to the manufacturer's specifications (Cayman Chemicals).

[3] = biological target: T2, soluble epoxide hydrolase (sEH) (Homo sapiens, UniProt P34913); assay: sEH activity assay (Cayman Chemicals); type: biochemical; conditions: for Remaining sEH Activity (33 μM): Table 3; for inhibition of sEH activity: graded concentrations; for inhibition at 33 µM: 33 μM compound, compared to vehicle (0%)
T2 construct: purchased Cayman Chemicals
T2 sequence (P34913 1-555): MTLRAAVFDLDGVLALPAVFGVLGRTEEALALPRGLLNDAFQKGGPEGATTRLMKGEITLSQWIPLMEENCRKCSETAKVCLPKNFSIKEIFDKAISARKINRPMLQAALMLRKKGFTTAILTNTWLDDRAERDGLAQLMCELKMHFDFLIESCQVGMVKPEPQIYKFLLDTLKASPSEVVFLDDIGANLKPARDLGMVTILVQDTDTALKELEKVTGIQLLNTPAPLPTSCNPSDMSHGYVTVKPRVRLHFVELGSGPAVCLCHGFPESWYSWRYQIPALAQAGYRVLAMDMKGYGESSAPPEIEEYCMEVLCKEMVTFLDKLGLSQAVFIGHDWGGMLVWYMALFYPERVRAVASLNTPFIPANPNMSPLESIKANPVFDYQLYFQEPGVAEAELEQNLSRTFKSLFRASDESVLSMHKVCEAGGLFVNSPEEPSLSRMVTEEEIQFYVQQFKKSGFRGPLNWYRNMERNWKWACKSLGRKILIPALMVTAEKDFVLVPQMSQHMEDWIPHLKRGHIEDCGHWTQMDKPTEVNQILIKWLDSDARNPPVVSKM
Procedure: as §1, §2

O=C(Nc1nc2ccccc2s1)C1CCN(S(=O)(=O)c2ccc(F)c(Cl)c2)CC1 [VU233]
% viability RAW 264.7 (33 μM) [1]: 111% | cytotoxicity in RAW264.7 cells [1]: no cytotoxicity | Remaining FAAH Activity (33 μM) [2]: 90% | inhibition of FAAH activity [2]: only weak inhibition | Remaining sEH Activity (33 μM) [3]: 117% | inhibition of sEH activity [3]: neither VU533 nor VU233 significantly inhibited seH

Cc1cc(C)c2sc(NC(=O)C3CCN(S(=O)(=O)c4ccc(F)cc4)CC3)nc2c1 [VU534, N-(5,7-Dimethylbenzo[d]thiazol-2-yl)-1-((4-fluorophenyl)sulfonyl)piperidine-4-carboxamide]
33 μM Mϕ % Viability [1]: >85% | % viability RAW 264.7 (33 μM) [1]: 89% | cytotoxicity in RAW264.7 cells [1]: minimal cytotoxicity | inhibition at 33 µM [2]: < 15% | Remaining FAAH Activity (33 μM) [2]: 86% | inhibition of FAAH activity [2]: no inhibition of FAAH; also recorded: only weak inhibition; also recorded: does not inhibit | inhibition at 33 µM [3]: 75% | Remaining sEH Activity (33 μM) [3]: 27% | inhibition of sEH activity [3]: inhibition of sEH; also recorded: modest inhibition; also recorded: inhibits

Cc1cccc2sc(NC(=O)C3CCN(S(=O)(=O)c4cnn(C)c4)CC3)nc12 [MRJ-058D]
33 μM Mϕ % Viability [1]: >85% | inhibition at 33 µM [2]: < 15% | inhibition at 33 µM [3]: 20%

Cc1cccc2sc(NC(=O)C3CCN(S(=O)(=O)c4cccnc4)CC3)nc12 [MRJ-058C]
33 μM Mϕ % Viability [1]: >85% | inhibition at 33 µM [2]: < 15% | inhibition at 33 µM [3]: 50%

O=C(Nc1nc2ccccc2s1)C1CCN(S(=O)(=O)c2cccnc2)CC1 [VU203]
% viability RAW 264.7 (33 μM) [1]: 57% | Remaining FAAH Activity (33 μM) [2]: 79% | Remaining sEH Activity (33 μM) [3]: 59%

Cn1cc(S(=O)(=O)N2CCC(C(=O)Nc3nc4ccccc4s3)CC2)cn1 [VU227]
% viability RAW 264.7 (33 μM) [1]: 106% | Remaining FAAH Activity (33 μM) [2]: 97% | Remaining sEH Activity (33 μM) [3]: 63%

Cc1cccc2sc(NC(=O)C3CCN(S(=O)(=O)c4cnn(C)c4)CC3)nc12 [VU210]
% viability RAW 264.7 (33 μM) [1]: 86% | Remaining FAAH Activity (33 μM) [2]: 89% | Remaining sEH Activity (33 μM) [3]: 81%

Cc1cccc2sc(NC(=O)C3CCN(S(=O)(=O)c4cccnc4)CC3)nc12 [VU211]
% viability RAW 264.7 (33 μM) [1]: 88% | Remaining FAAH Activity (33 μM) [2]: 86% | Remaining sEH Activity (33 μM) [3]: 48%

Cc1ccc2nc(NC(=O)C3CCN(S(=O)(=O)c4ccc(F)cc4)CC3)sc2c1 [VU486]
33 μM Mϕ % Viability [1]: >85% | % viability RAW 264.7 (33 μM) [1]: 89% | inhibition at 33 µM [2]: < 15% | Remaining FAAH Activity (33 μM) [2]: 89% | inhibition at 33 µM [3]: 40% | Remaining sEH Activity (33 μM) [3]: 60%

Cc1ccc(S(=O)(=O)N2CCC(C(=O)Nc3nc4c(C)cc(C)cc4s3)CC2)cc1 [VU575]
33 μM Mϕ % Viability [1]: >85% | % viability RAW 264.7 (33 μM) [1]: 85% | inhibition at 33 µM [2]: < 15% | Remaining FAAH Activity (33 μM) [2]: 90% | inhibition at 33 µM [3]: 45% | Remaining sEH Activity (33 μM) [3]: 55%

Cc1cccc2sc(NC(=O)C3CCN(S(=O)(=O)c4ccc(F)c(Cl)c4)CC3)nc12 [MRJ-058B]
33 μM Mϕ % Viability [1]: >85% | inhibition at 33 µM [2]: < 15% | inhibition at 33 µM [3]: 50%

Cc1ccc(C)c2sc(NC(=O)C3CCN(S(=O)(=O)c4ccc(F)cc4)CC3)nc12 [VU533]
cytotoxicity in RAW264.7 cells [1]: no cytotoxicity | inhibition of FAAH activity [2]: only weak inhibition | inhibition of sEH activity [3]: neither VU533 nor VU233 significantly inhibited seH

Cc1cc2nc(NC(=O)C3CCN(S(=O)(=O)c4ccc(F)cc4)CC3)sc2cc1C [VU536]
33 μM Mϕ % Viability [1]: >85% | % viability RAW 264.7 (33 μM) [1]: 114% | inhibition at 33 µM [2]: 25% | Remaining FAAH Activity (33 μM) [2]: 75% | inhibition at 33 µM [3]: 50% | Remaining sEH Activity (33 μM) [3]: 49%

Cc1ccc2sc(NC(=O)C3CCN(S(=O)(=O)c4ccc(F)cc4)CC3)nc2c1C [VU517]
33 μM Mϕ % Viability [1]: 80% | % viability RAW 264.7 (33 μM) [1]: 83% | inhibition at 33 µM [2]: < 15% | Remaining FAAH Activity (33 μM) [2]: 90% | inhibition at 33 µM [3]: 70% | Remaining sEH Activity (33 μM) [3]: 29%

Cc1cccc2sc(NC(=O)C3CCN(S(=O)(=O)c4ccc(F)c(Cl)c4)CC3)nc12 [VU209]
% viability RAW 264.7 (33 μM) [1]: 88% | Remaining FAAH Activity (33 μM) [2]: 88% | Remaining sEH Activity (33 μM) [3]: 62%
